# Patent US9657018B2, “Antagonists acting at multiple prostaglandin receptors for the treatment of inflammation” (Allergan, Inc., priority 2014, dated 2017)
# Assays:
# Assay type in all cases: cell-based
# [1] = target: T1, human prostanoid EP2 receptor (Homo sapiens, UniProt P43116); assay: FLIPR Ca2+ signaling antagonist assay, EP2 receptor stable cell line; details: human recombinant EP2 + chimeric Gqs in HEK-293 EBNA cells; standard agonist PGE2; NA = no antagonism or Kb>=10,000 nM
# T1 construct: expressed in transfected cells
# Description: (§1) The above compounds were tested for PG antagonist activity as follows using human recombinant prostanoid receptor (DP1, EP1-4, FP, IP and TP) stable cell lines:
# (§2) In order to measure the response of Gs and Gi coupled prostanoid receptors as a Ca^2+ signal, chimeric G protein cDNAs were used. Stable cell lines over-expressing human prostanoid DP1, EP1-4, FP, IP, and TP receptors were established as follows:
# (§3) Briefly, human prostanoid DP1, EP2, and EP4 receptor cDNAs were co-transfected with chimeric Gqs cDNA containing a haemagglutanin (HA) epitope; human prostanoid EP3 receptors were co-transfected with chimeric Gqi-HA; human EP1, FP, IP, and TP receptor cDNAs were expressed with no exogenous G-proteins. Gqs and Gqi chimeric cDNAs (Molecular Devices, Sunnyvale, Calif., U.S.A.), as well as cDNAs of prostanoid receptors, were cloned into a pCEP4 vector with a hygromycin B selection marker. Transfection into HEK-293 EBNA (Epstein-Barr virus nuclear antigen) cells was achieved by the FuGENE 6 transfection Reagent (Roche Applied Science, Indianapolis, Ind., USA). Stable transfectants were selected according to hygromycin resistance. Because Gqs and Gqi contained an HA epitope, G-protein expression was detected by Western blotting analysis using anti-mouse HA monoclonal antibody and horseradish peroxidase (HRP)-conjugated secondary antibody, while functional expression of prostanoid receptors was detected by FLIPR screening (Matias et al., 2004). These stable cell lines were validated using previously published antagonists at 10 μM against serial dilutions of standard agonists by FLIPR functional assays for Ca^2+ Signaling (as described below).
# (§4) Ca^2+ signaling studies were performed using a FLIPR TETRA system (Molecular Devices, Sunnyvale, Calif., USA) in the 384-format. This is a high-throughput instrument for cell-based assays to monitor Ca^2+ signaling associated with GPCRs and ion channels. Cells were seeded at a density of 5×10^4 cells/well in BioCoat poly-D-lysine coated, black wall, clear bottom 384-well plates (BD Biosciences, Franklin lakes, NJ, USA) and allowed to attach overnight in an incubator at 37° C. The cells were then washed twice with HBSS-HEPES buffer (Hanks' balanced salt solution without bicarbonate and phenol red, 20 mM HEPES, pH 7.4) using an ELx405 Select CW Microplate Washer (BioTek, Winooski, Vt., USA). After 60 min of dye-loading in the dark using the Ca^2+-sensitive dye Fluo-4AM (Invitrogen, Carlsbad, Calif., USA), at a final concentration of 2×10^−6M, the plates were washed 4 times with HBSS-HEPES buffer to remove excess dye and leaving 50 μl of buffer in each well. The plates were then placed in the FLIPR TETRA instrument and allowed to equilibrate at 37° C. AGN-211377 was added in a 25 μl volume to each well to give final concentrations of 0.1 μl. M, 0.4M, 1 μM, 3 μl. M, 10 μl. M, and 30 μl. M; or 0.067 μM, 0.4M, 0.67 μM, and 1 μM for cells over-expressing TP receptors. After 4.5 minutes, a 7-point serial dilution of the standard agonist for the corresponding receptor, in a 25 μl volume was injected at the final concentrations from 10^−11M to 10^−5M in 10-fold serial dilution increments for cells expressing human recombinant DP1, EP1, EP2, EP3, EP4, FP, and IP receptors. The dose range for the standard agonist for human recombinant TP receptors was from 10^−12M to 10^−6M. HBSS-HEPES buffer was used as the negative control for the standard agonists. Cells were excited with LED (light emitting diode) excitation at 470-495 nm and emission was measured through an emission filter at 515-575 nm. Assay plates were read for 3.5 minutes using the FLIPR^TETRA. The peak increase in fluorescence intensity was recorded for each well. On each plate, negative controls, dose response of positive controls, and co-treatments of antagonist-agonist for each dose were in triplicates. Standard agonists were as follows: DP=BW 245C, EP1-EP4=PGE2, FP=17-phenyl-PGF2a, IP=Cicaprost, and TP=U-46619. […]
# [2] = target: T2, human prostanoid EP4 receptor (Homo sapiens, UniProt P35408); assay: FLIPR Ca2+ signaling antagonist assay, EP4 receptor stable cell line; details: human recombinant EP4 + chimeric Gqs in HEK-293 EBNA cells; standard agonist PGE2; NA = no antagonism or Kb>=10,000 nM
# T2 construct: expressed in transfected cells
# Description: as §1, §2, §3, §4
# [3] = target: T3, human prostanoid EP3 receptor (Homo sapiens, UniProt P43115); assay: FLIPR Ca2+ signaling antagonist assay, EP3 receptor stable cell line; details: human recombinant EP3 + chimeric Gqi in HEK-293 EBNA cells; standard agonist PGE2; NA = no antagonism or Kb>=10,000 nM
# T3 construct: expressed in transfected cells
# T3 sequence (P43115 1-390): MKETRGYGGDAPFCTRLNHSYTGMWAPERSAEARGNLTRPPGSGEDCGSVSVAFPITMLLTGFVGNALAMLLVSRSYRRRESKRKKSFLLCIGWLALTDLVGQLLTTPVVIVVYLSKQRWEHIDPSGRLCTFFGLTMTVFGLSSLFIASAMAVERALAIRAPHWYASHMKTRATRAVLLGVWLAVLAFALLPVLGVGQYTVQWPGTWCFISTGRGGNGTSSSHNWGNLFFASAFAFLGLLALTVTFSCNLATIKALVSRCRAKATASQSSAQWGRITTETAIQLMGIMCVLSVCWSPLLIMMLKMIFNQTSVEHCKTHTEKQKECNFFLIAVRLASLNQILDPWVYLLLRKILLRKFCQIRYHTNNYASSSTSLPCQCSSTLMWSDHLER
# Description: as §1, §2, §3, §4
# [4] = target: T4, human prostanoid FP receptor (Homo sapiens, UniProt P43088); assay: FLIPR Ca2+ signaling antagonist assay, FP receptor stable cell line; details: human recombinant FP in HEK-293 EBNA cells; standard agonist 17-phenyl-PGF2a; NA = no antagonism or Kb>=10,000 nM
# T4 construct: expressed in transfected cells
# Description: as §1, §2, §3, §4
# [5] = target: T5, human prostanoid IP receptor (Homo sapiens, UniProt P43119); assay: FLIPR Ca2+ signaling antagonist assay, IP receptor stable cell line; details: human recombinant IP in HEK-293 EBNA cells; standard agonist Cicaprost; NA = no antagonism or Kb>=10,000 nM
# T5 construct: expressed in transfected cells
# Description: as §1, §2, §3, §4
# T4 sequence (P43088 whole entry): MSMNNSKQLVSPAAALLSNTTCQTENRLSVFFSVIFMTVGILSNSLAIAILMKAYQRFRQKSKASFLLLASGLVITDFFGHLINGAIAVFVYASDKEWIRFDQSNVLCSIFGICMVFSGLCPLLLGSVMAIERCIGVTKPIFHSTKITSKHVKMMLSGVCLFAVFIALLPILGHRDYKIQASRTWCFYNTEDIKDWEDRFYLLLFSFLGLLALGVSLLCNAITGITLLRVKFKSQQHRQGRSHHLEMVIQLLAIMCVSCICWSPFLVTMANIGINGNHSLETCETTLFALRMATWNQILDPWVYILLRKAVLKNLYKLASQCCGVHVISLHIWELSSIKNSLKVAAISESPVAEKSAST
# T2 sequence (P35408 whole entry): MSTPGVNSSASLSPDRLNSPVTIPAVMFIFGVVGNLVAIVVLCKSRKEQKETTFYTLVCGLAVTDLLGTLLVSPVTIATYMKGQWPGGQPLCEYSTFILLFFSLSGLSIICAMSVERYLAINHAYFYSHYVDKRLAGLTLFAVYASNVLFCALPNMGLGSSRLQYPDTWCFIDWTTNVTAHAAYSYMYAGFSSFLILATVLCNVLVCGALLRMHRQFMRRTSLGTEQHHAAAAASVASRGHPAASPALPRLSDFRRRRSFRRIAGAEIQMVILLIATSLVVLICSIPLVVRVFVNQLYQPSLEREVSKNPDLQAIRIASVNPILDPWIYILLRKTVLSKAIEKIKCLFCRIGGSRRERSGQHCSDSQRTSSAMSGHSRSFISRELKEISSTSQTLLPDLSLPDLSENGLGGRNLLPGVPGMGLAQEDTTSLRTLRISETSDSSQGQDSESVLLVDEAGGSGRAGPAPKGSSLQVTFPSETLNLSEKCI
# T5 sequence (P43119 whole entry): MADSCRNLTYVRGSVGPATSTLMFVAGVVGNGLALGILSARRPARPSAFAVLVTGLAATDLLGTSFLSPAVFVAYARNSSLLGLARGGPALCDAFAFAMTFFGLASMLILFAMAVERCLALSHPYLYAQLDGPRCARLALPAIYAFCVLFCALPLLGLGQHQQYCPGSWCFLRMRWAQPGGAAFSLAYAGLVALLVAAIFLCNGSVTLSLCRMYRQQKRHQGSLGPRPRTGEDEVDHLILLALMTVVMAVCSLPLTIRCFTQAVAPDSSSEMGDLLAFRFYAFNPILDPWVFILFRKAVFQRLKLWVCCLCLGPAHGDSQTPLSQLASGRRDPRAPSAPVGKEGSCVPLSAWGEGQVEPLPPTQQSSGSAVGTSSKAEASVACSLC
# T1 sequence (P43116 whole entry): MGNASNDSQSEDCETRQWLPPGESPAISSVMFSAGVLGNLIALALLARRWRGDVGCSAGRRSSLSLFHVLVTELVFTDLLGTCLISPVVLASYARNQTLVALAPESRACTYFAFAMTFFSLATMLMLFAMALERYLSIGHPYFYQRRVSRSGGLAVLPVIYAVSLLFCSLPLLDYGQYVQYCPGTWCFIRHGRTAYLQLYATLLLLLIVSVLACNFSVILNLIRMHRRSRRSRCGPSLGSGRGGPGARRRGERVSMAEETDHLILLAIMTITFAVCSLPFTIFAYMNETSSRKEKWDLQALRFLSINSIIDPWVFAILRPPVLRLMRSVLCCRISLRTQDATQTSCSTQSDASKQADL
Compound,Kb [1] [nM],Kb [2] [nM],Kb [3] [nM],Kb [4] [nM],Kb [5] [nM]
"CC(C)Cn1ncc2cc(Cl)cc(Cn3nc(N)c4cc(C(=O)O)ccc43)c21 [Compound 68, 3-Amino-1-[(5-chloro-1-isobutyl-indazol-7-yl)methyl]indazole-5-carboxylic acid]",> 10000,60,> 10000,35,9300
"CNc1nn(Cc2cc(Cl)cc3cnn(CC(C)C)c23)c2ccc(C(=O)O)cc12 [Compound 70, 1-[(5-Chloro-1-isobutyl-indazol-7-yl)methyl]-3-(methylamino)indazole-5-carboxylic acid]",7000,1,8100,17,900
